The values that follow come from patent publication US5236942A, “5-aryl-4-alkyl-3H-1,2,4-triazole-3-thiones useful in the treatment of Altzheimer's dementia” (Merrell Dow Pharmaceuticals Inc., priority 1992, dated 1993).

Like-named read-outs stand apart in the source and are kept apart here.

One data set relates to memory in mice. As to conditions: versus normal vehicle-treated control mice; cited from earlier work.
The test system of data set [1] is hippocampal high affinity choline uptake. Conditions: mice; cited from earlier work.
Data set [2] has as its system carrier that mediates choline transport ([3H] hemicholinium-3 binding in rat brain membranes). The data set can be described thus: [3H] hemicholinium-3 binding in rat brain membranes (cortex) after i.p. dosing of rats. Also noted: species or system Male Sprague-Dawley rats. As to conditions: for Bmax ± SEM of [3H] hemicholinium-3 binding / Kd: rat brain cortex; for Kd: Kd of the radioligand, read-out: Kd ± SEM of [3H] hemicholinium-3 binding. The text has this: Another measure of cholinergic activity is the binding of the radioligand [^3 H] hemicholinium-3, ([^3 H] HC-3) which labels the carrier that mediates choline transport. […] Therefore, the stimulation of [^3 H] HC-3 binding in vitro after treatment with drugs in vivo is also a marker for increased cholinergic activity, predictive of enhanced cognition in treated animals.
The pharmacological properties of these compounds as enhancers of memory and cognition and their relative potencies may be measured through their effect on neuro-transmitters in the brain. Since drugs that block GABA inhibition in the cholinergic neurons of the basal forebrain nuclei will stimulate cholinergic firing, thus stimulating memory, the capacity of the drugs to enhance cognition can be assessed by measuring the increase in cholinergic firing rate. The increase in cholinergic firing rate is measured indirectly by measuring choline uptake or [^3 H] hemicholinium-3 binding in brain cells taken from treated animals.
To test for [^3 H] hemicholinium-3 binding in brain cells from the brain cortex, drugs were dissolved in saline by sonication. Male Sprague-Dawley rats were dosed i.p. and sacrificed by decapitation 60 min after injection. The brains were removed and dissected, and tissue was homogenized in 20 volumes of ice-cold buffer and stored frozen until assayed. Binding was measured by incubating the tissue with varying concentrations of [^3 H]hemicholinium-3 in an isotonic Tris buffer (pH 7.4) for 60 min at room temperature. The incubation was terminated by rapid filtration through Whatman GF/B filters. After drying, the filters were placed in scintillation cocktail and radioactivity was determined using a Beckman scintillation counter. In two experiments, the values for the Kd and Bmax were determined by nonlinear curve-fitting and the average values for samples of 3 or more animals reported.

Data set [3] deals with time dependent memory deficit in rats. The data set can be described thus: Working memory in the T-maze, rats with 0- or 60-second delay. The format is in vivo, Male Sprague-Dawley rats. Conditions: for Number of errors (5 = chance response), 0-Second Delay / Number of errors (5 = chance response), 60-Second Delay: ten trials, mean ± SEM, n = 12. As for the experimental part: The activity of these compounds in enhancing memory can also be confirmed in experiments that study working memory in rats by evaluating the acquisition of alternation behavior in a T-maze. The maze used has the shape of a T with alleys 16 cm wide and side walls 20 cm high, the main arm being 65 cm long and the two side arms 45 cm long. Male Sprague-Dawleyrats are maintained on a 23 hour food deprivation schedule and are tested each day (Monday-Friday), each trial in the maze consisting of two runs. The rat starts at the end of the main arm and runs to the choice point where it must turn either left or right. The first is a forced run where one arm of the T-maze has been blocked off at the choice point. The remaining arm has a bowl of sweetened condensed milk as reward. On the second run the rat has a free choice of arms and learns by experience that food reward is to be found down the arm not visited on the first run. Trials are run at 30-second intervals, and the arm choice on the forced run is varied at random between trials. Arm entry is defined by the rat's placing all four paws in the arm, and incorrect selection of the arm is scored as an error. […] Impairment of performance is achieved for testing the compound of this invention in two different ways. […] The table compares the number of incorrect responses by rats tested in trials wherein there is no delay after the forced run and trials wherein there is a 60-second delay. […] For this test, the number of errors expected by random response, i.e., the selection of the correct arm 50% of the time, is 5.

In another data set the test system is hippocampal slice. The data set can be described thus: Electrophysiological assay of long term potentiation of the hippocampal slice. The text has this: (§1) Experiments also compared 5-(3-fluorophenyl)-2,4-dimethyl-3H-1,2,4-triazole-3-thione, a compound of formula I, with a series of β-carbolines in an electrophysiological assay system involving long term potentiation of the hippocampal slice.

Data set [4] has as its system scopolamine-induced memory deficit in rats. Kind of data set: Working memory in the T-maze, rats treated with scopolamine. The format is in vivo, Male Sprague-Dawley rats. Conditions: for Number of errors (12 = chance response), T-maze: 24 trials, mean ± SEM, n = 12. As for the experimental part: The maze used has the shape of a T with alleys 16 cm wide and side walls 20 cm high, the main arm being 65 cm long and the two side arms 45 cm long. Male Sprague-Dawleyrats are maintained on a 23 hour food deprivation schedule and are tested each day (Monday-Friday), each trial in the maze consisting of two runs. The rat starts at the end of the main arm and runs to the choice point where it must turn either left or right. The first is a forced run where one arm of the T-maze has been blocked off at the choice point. The remaining arm has a bowl of sweetened condensed milk as reward. On the second run the rat has a free choice of arms and learns by experience that food reward is to be found down the arm not visited on the first run. Trials are run at 30-second intervals, and the arm choice on the forced run is varied at random between trials. Arm entry is defined by the rat's placing all four paws in the arm, and incorrect selection of the arm is scored as an error. Noncompleted trials, where the rat has not made a choice within 3 minutes, are included as errors.5-(3-Fluorophenyl)-2,4-dimethyl-3H-1,2,4-triazole-3-thione is administered one hour before the first trial of each session. Impairment of performance is achieved for testing the compound of this invention in two different ways.
In the trials summarized in Table 2, the amnestic muscarinic antagonist scopolamine is administered subcutaneously at a dose of 0.15 mg/kg 15-minutes before the first trial, and there is a delay of 5-10 seconds after the forced run before the second run of the trial. […] All values are expressed as the mean number of errors per block of twenty-four trials with groups of 12 animals±the standard error of the mean. For this test, the number of errors expected by random response, i.e., the selection of the correct arm 50% of the time, is 12.

Another data set deals with benzodiazepine receptor. The data set can be described thus: Inverse agonism at the benzodiazepine receptor, in the hippocampal slice tests. As to conditions: in these tests. The format is cell-based.
Source text: as §1

Data set [5] has as its system high affinity choline uptake (HACU). As to conditions: cited from earlier work; for effect on HACU: acute administration i.p.; for effect on cortical or hippocampal HACU: after in vivo administration.
[6] abbreviates: 1 mg/kg i.p., n = 4, 60 min after injection.
Where [7] appears, read: 2.5 mg/kg i.p., n = 4, 60 min after injection.
The mark [8] stands for this setting: 25 mg/kg i.p., n = 3, 60 min after injection.
[9] abbreviates: 25 mg/kg i.p., n = 3, vs saline (Bmax 11.9).
Where [10] appears, read: 5 mg/kg i.p., n = 7, 60 min after injection.
The mark [11] stands for this setting: higher concentrations / high doses.

Consider `CC(=C(CCOC(=O)C(C)C)SSC(CCOC(=O)C(C)C)=C(C)N(C=O)Cc1cnc(C)nc1N)N(C=O)Cc1cnc(C)nc1N` (stereo in doubt) [sulbutiamine], for which the “performance in operant conditioning memory task” value with memory in mice was “performance was enhanced”. The “hippocampal high affinity choline uptake” value in data set [1] is given as “increased”.

On to `Cn1nc(-c2cccc(F)c2)n(C)c1=S` [5-(3-Fluorophenyl)-2,4-dimethyl-3H-1,2,4-triazole-3-thione], for which the “Bmax ± SEM of [3H] hemicholinium-3 binding” value (from here on “Bmax ± SEM”) in data set [2] (setting [6]) was found to be 20.3 ± 1.2 fmol/mg Protein; in data set [2] (setting [7]), 15.2 ± 3.0 fmol/mg Protein. The “% Increase in Bmax” value in data set [2] (1 mg/kg i.p., n = 4, vs saline (Bmax 9.7)) came out at 109%; in data set [2] (2.5 mg/kg i.p., n = 4, vs saline (Bmax 9.7)) it was 57%. Further, the Kd (in general, the constant that tells how readily two partners part at equilibrium) was 3.8 ± 0.6 nM in data set [2] (setting [6]) and 6.5 ± 1.8 nM in data set [2] (setting [7]). The “Number of errors (5 = chance response), 0-Second Delay” value in data set [3] (1 mg/kg) was determined as 0.50 ± 0.26; in data set [3] (5 mg/kg), 0.67 ± 0.33; in data set [3] (10 mg/kg), 0.58 ± 0.19. The “Number of errors (5 = chance response), 60-Second Delay” value in data set [3] (1 mg/kg, * p < 0.05 vs 0 seconds delay) was 4.42 ± 0.47; in data set [3] (5 mg/kg, * p < 0.05 vs 0 seconds delay) it was 2.33 ± 0.50; in data set [3] (10 mg/kg) it was 1.75 ± 0.43. Also, in data set [3] (60-second delay), the “reversal of time dependent deficit in the T-maze” value is reported as “effectively reverses the time dependent deficit”. For the same compound, the “epileptiform activity in the hippocampal slice” value (from here on “epileptiform activity”) in the data set with hippocampal slice is “did not produce the epileptiform activity”. Moreover, the “Number of errors (12 = chance response), T-maze” value in data set [4] (1 mg/kg with scopolamine 0.15 mg/kg, * p < 0.05 vs saline) is on record as 5.0 ± 0.26; in data set [4] (5 mg/kg with scopolamine 0.15 mg/kg, + p < 0.05 vs scopolamine), 4.0 ± 0.8. In data set [4] (5 mg/kg), the “reversal of scopolamine-induced memory deficit in the T-maze” value was “reverses the scopolamine-induced memory deficit”.

On to `Cn1nc(-c2cccc(C(F)(F)F)c2)n(C)c1=S` [5-(3-Trifluoromethylphenyl)-2,4-dimethyl-3H-1,2,4-triazole-3-thione], for which, in data set [2] (setting [8]), the “Bmax ± SEM” value is given as 16.0 ± 3.0 fmol/mg Protein and the Kd was found to be 1.5 ± 0.1 nM. The “% Increase in Bmax” value in data set [2] (setting [9]) was found to be 35%.

Regarding `Cn1c(-c2ccccc2)n[nH]c1=S` [5-Phenyl-4-methyl-3H-1,2,4-triazole-3-thione], in data set [2] (setting [8]), the “Bmax ± SEM” value is recorded as 18.7 ± 3.2 fmol/mg Protein and the Kd came out at 2.14 ± 0.7 nM. The “% Increase in Bmax” value in data set [2] (setting [9]) worked out at 57%.

In the case of `Cn1nc(-c2ccccc2)n(C)c1=S` [5-phenyl-2,4-dimethyl-3H-1,2,4-triazole-3-thione], in data set [2] (setting [10]), the “Bmax ± SEM” value is on record as 19.0 ± 3.4 fmol/mg Protein and the Kd was determined as 2.8 ± 0.5 nM. Moreover, the “% Increase in Bmax” value in data set [2] (5 mg/kg i.p., n = 7, vs saline (Bmax 11.9)) stood at 60%.

`CNC(=O)c1cc2c(cn1)[nH]c1ccccc12` [N-methyl-β-carboline-3-carboxamide]: the inverse agonist character result with benzodiazepine receptor was “partial inverse agonist”. In addition, the “epileptiform activity” value with hippocampal slice is “produced epileptiform activity”.

As to `CN1[C@@H]2C[C@@H](OC(=O)[C@H](CO)c3ccccc3)C[C@H]1[C@@H]1O[C@@H]12` [Scopolamine, reference compound], in data set [4] (scopolamine 0.15 mg/kg s.c. alone, ** p < 0.01 vs saline), the “Number of errors (12 = chance response), T-maze” value was found to be 6.9 ± 0.7.

Regarding `CN(C)CCC=C1c2ccccc2CCc2ccccc21` [amitriptyline], in data set [5], the “effect on HACU” value was “no effect”.

Take `CNCCCN1c2ccccc2CCc2ccccc21` [desipramine]: the “effect on HACU” value in data set [5] was “no effect”.

As to `CCOC(=O)c1cc2c(cn1)[nH]c1ccccc12` [ethyl β-carboline-3-carboxylate], in the data set on benzodiazepine receptor, the inverse agonist character entry is “full inverse agonists”. In addition, the “epileptiform activity” value in the data set on hippocampal slice (setting [11]) is “produced epileptiform activity”.

Turning to `CN(C)CCCN1c2ccccc2CCc2ccccc21` [imipramine], in data set [5], the “effect on HACU” value is reported as “no effect”.

On to `CCc1c(C(=O)OC)ncc2[nH]c3cc(OC)c(OC)cc3c12` [methyl 6,7-dimethoxy-4-ethyl-β-carboline-3-carboxylate], for which the inverse agonist character result in the data set on benzodiazepine receptor is reported as “full inverse agonists”. For the same compound, in the data set on hippocampal slice (setting [11]), the “epileptiform activity” value is on record as “produced epileptiform activity”.

In the case of `COC(=O)c1cc2c(cn1)[nH]c1ccccc12` [methyl β-carboline-3-carboxylate], in the data set with benzodiazepine receptor, the inverse agonist character result is listed as “full inverse agonists”. Besides, the “epileptiform activity” value with hippocampal slice (setting [11]) is reported as “produced epileptiform activity”.

As to `Cc1cc(-c2ccccc2)nnc1NCCN1CCOCC1` [minaprine], in data set [5] (30 mg/kg acute dose), the “effect on striatal, cortical and hippocampal HACU” value was “weak effect”.

Regarding `NC(=O)CN1CC(O)CC1=O` (stereo not drawn) [oxiracetam], the “effect on cortical or hippocampal HACU” value in data set [5] is reported as “stimulate cortical or hippocampal HACU”.

For the compound `CC(C)(CO)[C@@H](O)C(=O)NCCCC(=O)O` [pantoyl-GABA], the “effect on cortical or hippocampal HACU” value in data set [5] is recorded as “stimulate cortical or hippocampal HACU”.

`CC(C)N(CCNC(=O)CN1CCCC1=O)C(C)C` [pramiracetam]: the “effect on cortical or hippocampal HACU” value in data set [5] was “stimulate cortical or hippocampal HACU”.

For the compound `CCOc1ccccc1OCC1CNCCO1` (stereo not drawn) [viloxazine], in data set [5], the “effect on HACU” value is given as “no effect”.
